System: MC38 cells
Assay: In vivo efficacy, combination with ipilimumab, MC38 tumors
Design: species or system C57BL/6J mice
Details: Compound 1 3 mg/kg or 30 mg/kg once daily + ipilimumab 5 mg/kg once weekly; MC38, subcutaneous
Protocol: MC38 cells (3 x 10^5) were subcutaneously implanted into C57BL/6J mice (n = 6) to establish tumors. On day 12 after implantation, administration was initiated with Compound 1 at 3 mg/kg or 30 mg/kg (once daily) and ipilimumab (an anti-CTLA-4 antibody) at 5 mg/kg (once weekly), and the efficacy of each monotherapy and the combination therapy was compared.
Tumor volume was calculated using the following formula based on the short and long diameters of the tumor measured with digital calipers (Mitutoyo). [formula]
The antitumor effect was evaluated by comparing the vehicle-treated control group with the test substance-treated group, and calculating T/C using the following formula. [formula]

## CC1(C)Oc2cc(Cl)ccc2[C@@H]2OCC3(CCN(CCn4ccnc4)CC3)C[C@H]21 [Compound 1, (4'aR,10'bR)-8'-chloro-1-[2-(1H-imidazol-1-yl)ethyl]-5',5'-dimethyl-4'a,10'b-dihydro-2'H,4'H,5'H-spiro[piperidine-4,3'-pyrano[3,2-c][1]benzopyran] diphosphate]
  antitumor effect in combination with ipilimumab: remarkably pronounced antitumor effect

From patent publication EP4806435A1, “DIHYDROCHROMENE-DERIVATIVE-CONTAINING THERAPEUTIC AGENT FOR CANCER” (Sumitomo Pharma Co., Ltd., priority 2023, dated 2025)
